The source of these data is US20150018305A1, “SIRTUIN INDUCER, TISSUE REPAIRING AGENT, HEPATOCYTE GROWTH FACTOR INDUCER, TISSUE HOMEOSTASIS MAINTENANCE AGENT, AND TLR4 AGONIST, HAVING HYALURONIC ACID FRAGMENT AS ACTIVE INGREDIENT” (HYALURONAN RESEARCH INSTITUTE, INC., priority 2012, published 2015).

Assay [1] concerns human large intestine epithelial cells (HT29 cells). The experiment in a line: Hydrogen peroxide induced aging of human large intestine epithelial cells, MTS assay (Test Examples 16-18). The format is cell-based. As to conditions: for suppression of cellular aging (MTS value, OD 490 nm): hydrogen peroxide 10 μM 15 min. Here is the method:
Human large intestine epithelial cells (HT29 cells) were experienced cellular aging (decline in mitochondrial activity due to injury, or a drop in the MTS value once cell death occurs) due to stimulation by the hydrogen peroxide when treated with hydrogen peroxide, and it was investigated whether this process is affected by treatment with the hyaluronic acid fragment. Specifically, the following test was performed.
Using a DMEM culture medium (made by Wako Pure Chemical Industries, Ltd.), human large intestine epithelial cells (HT29 cells) were cultured by usual methods at 37° C. under 5% CO2. Hydrogen peroxide was added to the culture medium to a final concentration of 10 μM to bring about stimulation for a 15-minute period, and the culture broth was then transferred to DMEM culture medium containing no hyaluronic acid fragments; to DMEM culture medium containing hyaluronic acid fragment (4mer) in a final concentration of 100 ng/ml; or to DMEM culture medium containing the hyaluronic acid fragment (4mer) plus TLR4/MD2 in a final concentration of 10 μg/ml, and cultured for 3 hours.
After 3 hours had passed, an MTS assay was performed. On the basis of the action, in which MTS is converted to formazan by dehydrogenation in the mitochondria of the cell, OD 490 nm was measured to measure mitochondrial function.
Using hyaluronic acid fragment (4mer), hyaluronic acid fragment (L4mer) and hyaluronic acid fragment (L3mer) as test substances, tests similar to those of Test Example 16 were performed, except that the culture time following transfer to the culture medium containing the test substance was one hour.
Tests similar to those of Test Example 16 were performed, except for using hyaluronic acid fragment (L4mer), and hyaluronic acid fragment (L3mer) as test substances.
A general note: Tetrazolium dyes change colour on reduction, which living cells bring about.

In assay [2] the test system is sirtuin enzymatic activity (sirt1 enzymatic activity). The experiment in a line: Sirtuin enzymatic activity in cell solution of human epidermal keratinocytes, CycLex SIRT1/Sir2 Deacetylase Fluorometric Assay Kit (Test Example 2). The format is cell-based. Conditions: 10 ng/ml final concentration; cell crude extract. The method, then:
Human epidermal keratinocytes were treated in the same manner as in Test Example 1, except that the final concentration of the hyaluronic acid fragment was 10 ng/ml, the size thereof being four sugar units (4mer), six sugar units (6mer), or 10 sugar units (10mer), while measuring the sirtuin enzymatic activity (sirt1 enzymatic activity) in the cell solution thereof. For purposes of comparison, 10 kDa or 900 kDa hyaluronic acid, and resveratrol, a known sirtuin activator, were likewise tested at 10 ng/ml final concentration. A human sirtuin recombinant protein (recombinant human sirt1) produced through genetic recombination techniques was used as a substance for verification of the measurement system. Sirtuin enzymatic activity in the cell crude extract was measured with the CycLex SIRT1/Sir2 Deacetylase Fluorometric Assay Kit (trade name of CycLex), following the protocol of the kit.

Consider `CC(=O)NC1C(O[C@@H]2OC(C(=O)O)[C@@H](O[C@@H]3OC(CO)[C@@H](O)C(O[C@@H]4OC(C(=O)O)[C@@H](O)C(O)C4O)C3NC(C)=O)C(O)C2O)[C@H](O)C(CO)O[C@H]1OCCCN=[N+]=[N-]` (stereo partly shown) [L4mer], for which the “suppression of cellular aging (MTS value, OD 490 nm)” value in assay [1] (then 100 ng/ml for 3 hours) and in assay [1] (then test substance for one hour) was “showed effect in suppressing cellular aging” throughout. Also, in assay [1] (hydrogen peroxide 10 μM, 100 ng/ml plus TLR4/MD2 10 μg/ml, 3 hours), the “suppression of cellular aging with TLR4/MD2 added (MTS)” value is on record as “inhibited by the addition of TLR4/MD2”.
Take `Oc1ccc(C=Cc2cc(O)cc(O)c2)cc1` [resveratrol, reference compound]: the “sirtuin enzymatic activity (sirt1 enzymatic activity) compared with negative control” value in assay [2] is reported as “No change was observed”.
